Assay results taken from paper PMC8696196 (RSC Advances, 2021).

Target: H3N2 E119V (A/Moscow/10/99 background, E119V mutation in the neuraminidase gene)
Format: cell-based, influenza A virus
Conditions: read-out: EC50 H3N2 E119V

Structure (SMILES) | EC50
CCC(CC)O[C@@H]1C=C(C(=O)O)C[C@H](N)[C@H]1NC(C)=O [OSC, oseltamivir carboxylate, reference compound] | > 100 µM
CCC(CC)O[C@@H]1C=C(C(=O)O)C[C@H](n2nncc2-c2cccc(N)c2)[C@H]1NC(C)=O [Compound 2j, (3R,4R,5S)-4-Acetamido-5-[5-(3-aminophenyl)-1H-1,2,3-triazol-1-yl]-3-(pentan-3-yloxy)cyclohex-1-ene-1-carboxylic acid] | > 100 µM
